Experimental data taken from ChEMBL document CHEMBL1131704, “trans-2,6-,3,6- and 4,6-diaza-5,6,6a,7,8,12b-hexahydro-benzo[c]phenanthrene-10,11- diols as dopamine agonists” (Bioorg Med Chem Lett, 1999).
pEC50, pKi: −log10 of the molar value.

Legend:
D(1A) dopamine receptor [1] = target: T1, D(1A) dopamine receptor (Homo sapiens, UniProt P21728); test: Intrinsic activity relative against Dopamine receptor D1.; assay type: functional
D(1A) dopamine receptor [2] = target: T1, D(1A) dopamine receptor; test: Potency in adenylate cyclase functional assay against Dopamine receptor D1
[3] = target: Dopamine D1 and D2 receptor (Homo sapiens) (UniProt P14416+P21728); test: Ratio of Ki for human dopamine-2(D-2) and dopamine-1(D-1) receptors; assay type: protein assay
Chain of Dopamine D1 and D2 receptor (Homo sapiens) (P14416 whole entry, looked up): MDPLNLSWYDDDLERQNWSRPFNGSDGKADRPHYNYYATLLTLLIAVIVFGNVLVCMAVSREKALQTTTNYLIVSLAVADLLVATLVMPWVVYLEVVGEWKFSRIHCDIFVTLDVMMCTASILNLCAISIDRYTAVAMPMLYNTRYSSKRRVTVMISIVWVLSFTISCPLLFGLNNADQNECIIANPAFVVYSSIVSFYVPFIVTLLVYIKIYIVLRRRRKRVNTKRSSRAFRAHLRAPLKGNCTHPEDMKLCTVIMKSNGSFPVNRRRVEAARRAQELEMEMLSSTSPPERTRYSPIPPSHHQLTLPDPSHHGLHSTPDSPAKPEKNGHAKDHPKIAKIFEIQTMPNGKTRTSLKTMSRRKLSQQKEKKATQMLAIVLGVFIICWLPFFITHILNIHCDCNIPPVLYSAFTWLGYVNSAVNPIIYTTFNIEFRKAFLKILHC
Chain of Dopamine D1 and D2 receptor (Homo sapiens) (P21728 whole entry, looked up): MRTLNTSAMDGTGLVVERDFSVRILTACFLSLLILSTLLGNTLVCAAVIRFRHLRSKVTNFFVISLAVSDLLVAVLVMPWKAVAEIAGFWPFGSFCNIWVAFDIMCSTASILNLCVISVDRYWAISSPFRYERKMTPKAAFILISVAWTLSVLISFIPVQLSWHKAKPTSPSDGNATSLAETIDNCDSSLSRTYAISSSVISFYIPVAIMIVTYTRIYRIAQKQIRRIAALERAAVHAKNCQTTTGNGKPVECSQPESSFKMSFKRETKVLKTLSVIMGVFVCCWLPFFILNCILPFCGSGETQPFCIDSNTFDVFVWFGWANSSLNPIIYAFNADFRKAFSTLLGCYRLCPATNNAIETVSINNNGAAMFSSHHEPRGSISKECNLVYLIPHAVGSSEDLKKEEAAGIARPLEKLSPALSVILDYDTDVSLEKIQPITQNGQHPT

D(2) dopamine receptor = D(2) dopamine receptor (Homo sapiens, UniProt P14416); test: Binding affinity to human Dopamine receptor D2 by using radioligand [3H]spiperone in LTK cells; assay type: cell-based
Chain of D(2) dopamine receptor (P14416 whole entry): as the sequence (P14416 whole entry, looked up) above

D(1A) dopamine receptor [4] = target: T1, D(1A) dopamine receptor; test: Binding affinity to Dopamine receptor D1 by using radioligand [125I]SCH-23982 in HEK cells; assay type: cell-based, HEK293

T1 sequence (P21728 whole entry): as the sequence (P21728 whole entry, looked up) above

Structure (SMILES)	Intrinsic activity (D(1A) dopamine receptor [1])	pEC50 (D(1A) dopamine receptor [2])	Ratio [3]	pKi (D(2) dopamine receptor)	pKi (D(1A) dopamine receptor [4])
Oc1cc2c(cc1O)[C@H]1c3ccccc3CN[C@@H]1CC2	121%	–	–	–	–
CCCCc1cnc2c(c1)[C@@H]1c3cc(O)c(O)cc3CC[C@H]1NC2	118%	6.74	2	5.72	6.05
Oc1cc2c(cc1O)[C@H]1c3cc4c(nc3CN[C@@H]1CC2)CCCC4	136%	7.20	6	5.44	6.25
Oc1cc2c(cc1O)[C@H]1c3ccc(F)nc3CN[C@@H]1CC2	141%	7.74	12	5.66	6.74
Cc1cc2c(nc1C)CN[C@@H]1CCc3cc(O)c(O)cc3[C@@H]21	134%	6.92	33	5.04	6.55
CCCc1ccc2c(n1)CN[C@@H]1CCc3cc(O)c(O)cc3[C@@H]21	116%	8.07	10	6.35	7.35
CCCc1cc2c(s1)CN[C@@H]1CCc3cc(O)c(O)cc3[C@@H]21	125%	–	14	–	–
Oc1cc2c(cc1O)[C@H]1c3cncc(F)c3CN[C@@H]1CC2	126%	6.10	2	6.05	6.41
Oc1cc2c(cc1O)[C@H]1c3cnccc3CN[C@@H]1CC2	81%	6.49	1	5.89	5.96
COc1ccc2c(n1)CN[C@@H]1CCc3cc(O)c(O)cc3[C@@H]21	114%	8.06	11	6.28	7.31
Oc1cc2c(cc1O)[C@H]1c3ccncc3CN[C@@H]1CC2	131%	7.42	31	5.36	6.85
Oc1cc2c(cc1O)[C@H]1c3cccnc3CN[C@@H]1CC2	125%	8.17	38	5.60	7.19
Cc1ccc2c(n1)CN[C@@H]1CCc3cc(O)c(O)cc3[C@@H]21	121%	7.64	10	5.85	6.85
Cc1cnc2c(c1)[C@@H]1c3cc(O)c(O)cc3CC[C@H]1NC2	156%	6.96	50	4.92	6.62
Cc1cncc2c1CN[C@@H]1CCc3cc(O)c(O)cc3[C@@H]21	75%	6.64	0.36	6.40	5.96
